Measured values reported in paper PMC11371747, “The role of l-leucovorin uptake and metabolism in the modulation of 5-fluorouracil efficacy and antifolate toxicity” (Frontiers in Pharmacology, 2024).
Read-outs that look alike come from different tables or passages of the source.

Legend:
AA8 cells = test: Growth inhibition, SRB assay, AA8 (parental CHO); format: cell-based, Chinese hamster; conditions: for IC50: AA8 parental CHO
Method: (§1) Briefly, cells were seeded in triplicate in 96-well plates at their pre-established optimal density (CHO cells: 2,500 cells/100 μL; WiDr and HT29: 3,500 cells/100 μL; WiDr-LF/LV, LS174T: 5,000 cells/100 μL; CaCo2, CaCo2-LF/LV, H292, H28 and MSTO-211H: 6,000 cells/100 μL; H460, SW948 and SW1398: 7,000 cells/100 μL) and were allowed to attach for ∼ 24 h at 37°C in 5% CO2 and 100% humidified incubator. Thereafter, 100 μL of drug dilution without LV, or with 5 μM l-LV/5 μM d-LV/10 μM dL-LV (or any LV alone) were added. Cells were allowed to grow for 72 h at 37°C in 5% CO2 and 100% humidity. The t = 0 h control plate consisted of cells plated on the same day as the other cells, but after 24 h at 37°C in 5% CO2 and 100% humidity, only 100 μL medium was added and the cells were fixed immediately with 50% trichloroacetic acid (TCA) in milliQ water (25 μL per well) and put at 4°C for at least 1 h. Plates were washed five times with water and dried. Cells were stained with the SRB protein dye (0.4% (w/v) in 1% acetic acid. Excess dye was washed away four times with 1% acetic acid and plates were dried again. 200 μL of Tris (10 mM Tris (hydroxymethyl)-aminomethane in MQ) was added and optical density (OD) was read at 492 nm after mixing 2–3 min on a plate shaker.

H460 cells = test: Growth inhibition, SRB assay, H460 (NSCLC); format: cell-based, human; conditions: for IC50: H460, SRB, read-out: IC50, 72 h drug exposure
Method: as §1

[1] = biological target: T1, thymidylate synthase (TS) (Homo sapiens, UniProt P04818); test: TS in situ inhibition assay (TSIA) in colon cancer cells; format: cell-based; conditions: WiDr, 4 h, antifolate alone
T1 construct: The principle of this assay is the measurement of TS enzymatic activity in intact cells; endogenous in cells; host or cells: colon cancer cell lines (WiDr, WiDr-LF, SW1398, LS174T and others)
T1 sequence (P04818 2-313 limits assumed): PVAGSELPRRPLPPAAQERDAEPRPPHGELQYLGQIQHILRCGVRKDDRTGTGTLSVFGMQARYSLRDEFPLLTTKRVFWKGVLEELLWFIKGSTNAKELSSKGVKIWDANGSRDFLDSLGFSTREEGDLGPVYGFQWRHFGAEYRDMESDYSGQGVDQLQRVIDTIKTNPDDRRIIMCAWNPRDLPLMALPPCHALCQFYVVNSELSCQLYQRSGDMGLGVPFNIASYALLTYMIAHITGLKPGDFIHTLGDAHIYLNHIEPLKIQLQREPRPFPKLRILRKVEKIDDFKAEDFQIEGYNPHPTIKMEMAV
Description: The principle of this assay is the measurement of TS enzymatic activity in intact cells. Intact cells will readily internalize radioactively labelled [5-^3H]-deoxycytidine, which will be rapidly converted by deoxycytidine kinase (dCK) to [5-^3H]-dCMP and subsequently deaminated to [5-^3H]-dUMP, which will then serve as a substrate in the TS catalysed reaction to dTMP and ^3H2O; the quantity of ^3H2O formed over time is a measure of intracellular TS activity. […] This is because dCK has a higher, cell cycle independent activity than thymidine kinase 1, which is a cell cycle dependent enzyme. For this purpose, cancer cells were cultured in six wells plates at 2.5 × 10^5 cells/2 mL/well for 24 h. Thereafter, cells were exposed to drugs with or without the LV formulations at the indicated concentrations for 4 h. 2 h before the end of the incubation period [5-^3H]-2′-deoxycytidine (final concentration 1 µM) was added to the cells. […] In most cell lines we quantified dCK activity and dCK mRNA levels.

CHO/C5-MOCK cells = test: Growth inhibition, SRB assay, CHO/C5-MOCK (empty vector); format: cell-based, Chinese hamster
Method: as §1

H292 cells = test: Growth inhibition, SRB assay, H292 (NSCLC); format: cell-based, human; conditions: for IC50: H292, SRB, read-out: IC50, 72 h drug exposure
Method: as §1

[2] = biological target: T2, reduced folate carrier (RFC/SLC19A1) (Homo sapiens, UniProt P41440); test: Inhibition of RFC-mediated [3H]-l-LV influx in CEM-7A cells; format: cell-based
T2 construct: CEM-7A cells, which display 30-fold RFC overexpression relative to wild-type CCRF-CEM cells; endogenous in cells; host or cells: CEM-7A (CCRF-CEM variant, RFC+++ 30-fold)
T2 sequence (P41440 1-591): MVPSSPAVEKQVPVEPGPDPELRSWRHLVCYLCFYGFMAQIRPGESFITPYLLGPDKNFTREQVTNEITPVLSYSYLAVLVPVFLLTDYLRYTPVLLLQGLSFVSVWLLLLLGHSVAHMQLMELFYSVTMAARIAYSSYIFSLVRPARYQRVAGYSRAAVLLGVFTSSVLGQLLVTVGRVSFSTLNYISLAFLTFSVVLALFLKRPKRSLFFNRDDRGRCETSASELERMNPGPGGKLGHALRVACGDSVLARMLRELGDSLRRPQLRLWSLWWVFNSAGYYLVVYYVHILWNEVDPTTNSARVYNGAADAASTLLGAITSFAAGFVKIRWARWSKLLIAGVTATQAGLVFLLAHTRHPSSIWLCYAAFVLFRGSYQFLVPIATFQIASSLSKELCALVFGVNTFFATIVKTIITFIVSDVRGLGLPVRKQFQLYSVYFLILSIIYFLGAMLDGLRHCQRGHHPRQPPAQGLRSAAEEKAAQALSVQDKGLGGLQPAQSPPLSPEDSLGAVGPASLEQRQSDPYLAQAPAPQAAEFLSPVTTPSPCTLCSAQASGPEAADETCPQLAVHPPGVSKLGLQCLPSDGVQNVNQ
Method: In order to determine whether the LV isomers were substrates for either folate receptor α (FRα), RFC and/or PCFT, we used model systems with established overexpression of these receptors or transporters ([Westerhof et al., 1995a]; [Westerhof et al., 1995b]; [Lasry et al., 2008]; [Van der Heijden et al., 2009]).
CEM-7A cells (2 × 10^6) were suspended in 1 mL HBSS and the assay was initiated by addition of 25 μL 200 μM [^3H]-l-LV; 5,000 pmol (i.e., 5 μM final concentration). Incubations proceeded for 2 min at 37°C in the absence and presence of increasing amounts of unlabelled LV/antifolate drug. Blanks consisted of a separate incubation at 4°C or incubation with 100-fold molar excess of unlabelled l-LV. [^3H]-l-LV influx was terminated by adding 9 mL ice-cold HBSS, centrifugation and an additional wash of the cells with 10 mL ice-cold buffer. Cell pellets were then assessed for radioactivity. Relative affinities for RFC are expressed as the concentration of unlabelled drug necessary to inhibit [^3H]-l-LV uptake by 50%.

[3] = Cricetulus griseus, antifolate alone

IC50 (H460 cells; antifolate + 5 µM l-LV): 1450 nM
IC50 (H460 cells; Homo sapiens, NCI-H460, 72 h, antifolate alone): 2.8 ± 0.1 nM
IC50 [1]: 17.7 ± 4.7 nM
IC50 (H292 cells; antifolate + 5 µM l-LV): 19.1 µM
IC50 (H292 cells; Homo sapiens, NCI-H292, 72 h, antifolate alone): 0.0037 ± 0.0003 µM
50% inhibition of [3H]-l-LV influx (RFC), fold lower concentration than l-LV [2]: 2.5 fold
SMILES: C#CCC(Cc1cnc2nc(N)nc(N)c2n1)c1ccc(C(=O)N[C@@H](CCC(=O)O)C(=O)O)cc1 (stereo partly shown) [PLX, pralatrexate]
Protection by l-LV, increase of the IC50 value (AA8 cells; AA8 cells, 5 µM l-LV): 965 fold
IC50 (AA8 cells; antifolate + 5 µM l-LV): 3670 nM
IC50 (AA8 cells; [3]): 3.8 nM
Relative protection by 5 µM l-LV (H460 cells; H460, ratio IC50 antifolate + LV / IC50 antifolate): 502 ± 21
IC50 (CHO/C5-MOCK cells; [3]): 13.1 µM
IC50 (CHO/C5-MOCK cells; antifolate + 5 µM l-LV): > 100 µM
Relative protection by 5 µM l-LV (H292 cells; H292, ratio IC50 antifolate + LV / IC50 antifolate): 4,778 ± 1795
